Results reported in the supplement of paper PMC10307832.

compound: COc1cccc2c1C(=O)c1c(O)c3c(c(O)c1C2=O)C[C@@](O)(C(=O)CO)C[C@@H]3O[C@H]1C[C@H](N)[C@H](O)[C@H](C)O1 [Doxorubicin] + CC(C)C[C@H](NC(=O)[C@H](Cc1ccccc1)NC(=O)c1cnccn1)B(O)O [Bortezomib] (partner 0.002 µM); test: relative viability (nuclei count vs DMSO), 5 days (fraction); higher = more cells survive; conditions: first compound 0.1 µM
Method in brief: (§1)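 Lung cancer cell lines were pin-tool dosed in 1536-well plates on the day after seeding, with either a lone drug or a fixed anchor-drug dose plus five library-drug doses (not always all listed) in √10 steps. Nuclei were counted on 4× images after 5 days. Relative viability is the ratio of treated-well to vehicle-well nuclei counts, with each value a median of duplicate plates.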

Cell Line | relative viability
HCC-366 | 0.0968

compound: COc1cccc2c1C(=O)c1c(O)c3c(c(O)c1C2=O)C[C@@](O)(C(=O)CO)C[C@@H]3O[C@H]1C[C@H](N)[C@H](O)[C@H](C)O1 [Doxorubicin] + Cc1nc(Nc2ncc(C(=O)Nc3c(C)cccc3Cl)s2)cc(N2CCN(CCO)CC2)n1 [Dasatinib] (partner 0.075 µM); test: as above; conditions: first compound 0.001 µM
Method in brief: as §1

Cell Line | relative viability
NCI-H3122 | 0.684
201T | 0.537
NCI-H1975 | 0.406
HOP-62 | 0.68
NCI-H2405 | 0.187
NCI-H1355 | 0.723
NCI-H838 | 0.292
CAL-12T | 0.302
NCI-H1666 | 0.812
EPLC-272H | 0.41
NCI-H2347 | 0.271
NCI-H1915 | 0.281
NCI-H1437 | 0.369
NCI-H460 | 0.507
NCI-H2085 | 0.286
EKVX | 0.581
LCLC-103H | 0.507
NCI-H1650 | 0.37
NCI-H1993 | 0.714
PC-14 | 0.28

same assay, conditions: first compound 0.003162 µM

Cell Line | relative viability
NCI-H3122 | 0.837
NCI-H441 | 0.585
201T | 0.636
NCI-H1975 | 0.356
HOP-62 | 0.737
NCI-H2405 | 0.208
NCI-H1355 | 0.789
NCI-H838 | 0.284
CAL-12T | 0.461
NCI-H1666 | 0.811
EPLC-272H | 0.418
NCI-H2347 | 0.322
NCI-H1915 | 0.355
NCI-H1437 | 0.391
NCI-H460 | 0.427
NCI-H2085 | 0.278
HCC-15 | 0.654
EKVX | 0.504
LCLC-103H | 0.6
NCI-H1650 | 0.321
NCI-H1993 | 0.6
NCI-H23 | 1.01
PC-14 | 0.184
HCC-366 | 0.757

same assay, conditions: first compound 0.01 µM

Cell Line | relative viability
NCI-H3122 | 0.735
NCI-H441 | 0.332
201T | 0.561
NCI-H1975 | 0.331
HOP-62 | 0.601
NCI-H2405 | 0.243
NCI-H1355 | 0.722
NCI-H838 | 0.228
CAL-12T | 0.346
NCI-H1666 | 0.461
EPLC-272H | 0.371
NCI-H2347 | 0.327
NCI-H1915 | 0.308
NCI-H1437 | 0.3
NCI-H460 | 0.405
NCI-H2085 | 0.224
HCC-15 | 0.493
EKVX | 0.601
LCLC-103H | 0.446
NCI-H1650 | 0.301
NCI-H1993 | 0.512
NCI-H23 | 0.88
PC-14 | 0.22
HCC-366 | 0.614

same assay, conditions: first compound 0.03162 µM

Cell Line | relative viability
NCI-H3122 | 0.291
NCI-H441 | 0.166
201T | 0.583
NCI-H1975 | 0.304
HOP-62 | 0.628
NCI-H2405 | 0.207
NCI-H1355 | 0.706
NCI-H838 | 0.307
CAL-12T | 0.195
NCI-H1666 | 0.359
EPLC-272H | 0.417
NCI-H2347 | 0.283
NCI-H1915 | 0.302
NCI-H1437 | 0.459
NCI-H460 | 0.171
NCI-H2085 | 0.224
HCC-15 | 0.191
EKVX | 0.539
LCLC-103H | 0.381
NCI-H1650 | 0.149
NCI-H1993 | 0.479
NCI-H23 | 0.668
PC-14 | 0.0983
HCC-366 | 0.238

same assay, conditions: first compound 0.1 µM

Cell Line | relative viability
NCI-H3122 | 0.928
NCI-H441 | 0.213
201T | 0.546
NCI-H1975 | 0.158
HOP-62 | 0.552
NCI-H2405 | 0.177
NCI-H1355 | 0.764
NCI-H838 | 0.277
CAL-12T | 0.118
NCI-H1666 | 0.318
EPLC-272H | 0.343
NCI-H2347 | 0.307
NCI-H1915 | 0.324
NCI-H1437 | 0.152
NCI-H460 | 0.0701
NCI-H2085 | 0.241
HCC-15 | 0.0861
EKVX | 0.501
LCLC-103H | 0.552
NCI-H1650 | 0.11
NCI-H1993 | 0.427
NCI-H23 | 0.547
PC-14 | 0.0282
HCC-366 | 0.212

compound: COc1cccc2c1C(=O)c1c(O)c3c(c(O)c1C2=O)C[C@@](O)(C(=O)CO)C[C@@H]3O[C@H]1C[C@H](N)[C@H](O)[C@H](C)O1 [Doxorubicin] + O=C(CCCCCCC(=O)Nc1ccccc1)NO [Vorinostat] (partner 1 µM); test: as above; conditions: first compound 0.001 µM
Method in brief: as §1

Cell Line | relative viability
NCI-H3122 | 0.839
NCI-H441 | 0.87
201T | 0.892
NCI-H1975 | 0.731
HOP-62 | 0.515
NCI-H2405 | 1.2
NCI-H1355 | 0.604
NCI-H838 | 0.783
CAL-12T | 0.928
EPLC-272H | 0.364
NCI-H2347 | 0.588
NCI-H1915 | 0.521
NCI-H1437 | 0.784
NCI-H460 | 0.654
NCI-H2085 | 0.725
HCC-15 | 0.888
EKVX | 0.764
LCLC-103H | 0.775
NCI-H1650 | 0.52
NCI-H1993 | 0.0284
NCI-H23 | 0.551
PC-14 | 0.655
HCC-366 | 0.279

same assay, conditions: first compound 0.003162 µM

Cell Line | relative viability
NCI-H3122 | 0.982
NCI-H441 | 0.962
201T | 0.996
NCI-H1975 | 0.735
HOP-62 | 0.605
NCI-H2405 | 1.17
NCI-H1355 | 0.602
NCI-H838 | 0.737
CAL-12T | 0.808
NCI-H1666 | 1.1
EPLC-272H | 0.501
NCI-H2347 | 0.539
NCI-H1915 | 0.57
NCI-H1437 | 0.891
NCI-H460 | 0.639
NCI-H2085 | 0.779
HCC-15 | 0.847
EKVX | 0.889
LCLC-103H | 0.823
NCI-H1650 | 0.625
NCI-H1993 | 0.67
NCI-H23 | 0.808
PC-14 | 0.781
HCC-366 | 0.403

same assay, conditions: first compound 0.01 µM

Cell Line | relative viability
NCI-H3122 | 0.853
NCI-H441 | 0.75
201T | 0.96
NCI-H1975 | 0.678
HOP-62 | 0.599
NCI-H2405 | 0.971
NCI-H1355 | 0.631
NCI-H838 | 0.714
CAL-12T | 0.488
NCI-H1666 | 0.972
EPLC-272H | 0.381
NCI-H2347 | 0.45
NCI-H1915 | 0.532
NCI-H1437 | 0.812
NCI-H460 | 0.492
NCI-H2085 | 0.807
HCC-15 | 0.818
EKVX | 0.762
LCLC-103H | 0.779
NCI-H1650 | 0.417
NCI-H1993 | 0.851
NCI-H23 | 0.654
PC-14 | 0.709
HCC-366 | 0.306

same assay, conditions: first compound 0.03162 µM

Cell Line | relative viability
NCI-H3122 | 0.907
NCI-H441 | 0.279
201T | 1.06
NCI-H1975 | 0.679
HOP-62 | 0.538
NCI-H2405 | 0.804
NCI-H1355 | 0.599
NCI-H838 | 0.544
CAL-12T | 0.228
NCI-H1666 | 0.808
EPLC-272H | 0.345
NCI-H2347 | 0.49
NCI-H1915 | 0.5
NCI-H1437 | 0.627
NCI-H460 | 0.063
NCI-H2085 | 0.82
HCC-15 | 0.736
EKVX | 0.724
LCLC-103H | 0.811
NCI-H1650 | 0.181
NCI-H1993 | 0.509
NCI-H23 | 0.464
PC-14 | 0.182
HCC-366 | 0.211

same assay, conditions: first compound 0.1 µM

Cell Line | relative viability
NCI-H3122 | 0.998
NCI-H441 | 0.372
201T | 0.942
NCI-H1975 | 0.531
HOP-62 | 0.572
NCI-H2405 | 0.323
NCI-H1355 | 0.625
NCI-H838 | 0.435
CAL-12T | 0.153
NCI-H1666 | 0.806
EPLC-272H | 0.345
NCI-H2347 | 0.476
NCI-H1915 | 0.527
NCI-H1437 | 0.585
NCI-H460 | 0.0329
NCI-H2085 | 0.618
HCC-15 | 0.747
EKVX | 0.794
LCLC-103H | 0.902
NCI-H1650 | 0.16
NCI-H1993 | 0.462
NCI-H23 | 0.363
PC-14 | 0.0946
HCC-366 | 0.122
